Results: ChEMBL document CHEMBL1156647, “Evolving trends in the dereplication of natural product extracts. 2. The isolation of chrysaibol, an antibiotic peptaibol from a New Zealand sample of the mycoparasitic fungus Sepedonium chrysospermum” (J Nat Prod, 2008)
Activity calls are given as the source filed them. The rule behind the calls is not given here. Residues, ends and D or L forms follow the SMILES beside them.

Columns and labels:
[1] = test system: P388; test: Cytotoxicity against mouse P388 cells; format: functional, cell-based
[2] = test system: Bacillus subtilis; test: Antimicrobial activity against Bacillus subtilis; format: functional, organism-based
[3] = test system: Candida albicans; test: Antimicrobial activity against Candida albicans; format: functional, organism-based

**Q.** Which results are given for `CC(=O)N[C@@H](Cc1c[nH]c2ccccc12)C(=O)NC(C)(C)C(=O)NC(C)(C)C(=O)N[C@@H](CC(C)C)C(=O)N[C@H](C(=O)N[C@@H](CCC(N)=O)C(=O)NC(C)(C)C(=O)NC(C)(C)C(=O)NC(C)(C)C(=O)N[C@@H](CCC(N)=O)C(=O)N[C@@H](CC(C)C)C(=O)NC(C)(C)C(=O)N1CCC[C@H]1C(=O)N[C@@H](CCC(N)=O)C(=O)N[C@@H](C)CO)C(C)C` [CHRYSAIBOL] (HELM PEPTIDE1{[ac].W.[Aib].[Aib].L.V.Q.[Aib].[Aib].[Aib].Q.L.[Aib].P.Q.[C[C@@H](CO)N[*:1]]}$$$$V2.0)?
**A.** IC50 [1]: 6.61 µM; IC50 [2]: 1.54 µM; Activity [3]: inactive
